From patent US20240384268A1, “Oligonucleotides” (Hudson Institute of Medical Research, priority 2021, published 2024) come the findings set out here.

The target of this data set is T1, human TLR7 (Homo sapiens, UniProt Q9NYK1).
T1 construct: HA; host or cells: 293XL-hTLR7-HA (HEK293)
T1 sequence (Q9NYK1 27-1049): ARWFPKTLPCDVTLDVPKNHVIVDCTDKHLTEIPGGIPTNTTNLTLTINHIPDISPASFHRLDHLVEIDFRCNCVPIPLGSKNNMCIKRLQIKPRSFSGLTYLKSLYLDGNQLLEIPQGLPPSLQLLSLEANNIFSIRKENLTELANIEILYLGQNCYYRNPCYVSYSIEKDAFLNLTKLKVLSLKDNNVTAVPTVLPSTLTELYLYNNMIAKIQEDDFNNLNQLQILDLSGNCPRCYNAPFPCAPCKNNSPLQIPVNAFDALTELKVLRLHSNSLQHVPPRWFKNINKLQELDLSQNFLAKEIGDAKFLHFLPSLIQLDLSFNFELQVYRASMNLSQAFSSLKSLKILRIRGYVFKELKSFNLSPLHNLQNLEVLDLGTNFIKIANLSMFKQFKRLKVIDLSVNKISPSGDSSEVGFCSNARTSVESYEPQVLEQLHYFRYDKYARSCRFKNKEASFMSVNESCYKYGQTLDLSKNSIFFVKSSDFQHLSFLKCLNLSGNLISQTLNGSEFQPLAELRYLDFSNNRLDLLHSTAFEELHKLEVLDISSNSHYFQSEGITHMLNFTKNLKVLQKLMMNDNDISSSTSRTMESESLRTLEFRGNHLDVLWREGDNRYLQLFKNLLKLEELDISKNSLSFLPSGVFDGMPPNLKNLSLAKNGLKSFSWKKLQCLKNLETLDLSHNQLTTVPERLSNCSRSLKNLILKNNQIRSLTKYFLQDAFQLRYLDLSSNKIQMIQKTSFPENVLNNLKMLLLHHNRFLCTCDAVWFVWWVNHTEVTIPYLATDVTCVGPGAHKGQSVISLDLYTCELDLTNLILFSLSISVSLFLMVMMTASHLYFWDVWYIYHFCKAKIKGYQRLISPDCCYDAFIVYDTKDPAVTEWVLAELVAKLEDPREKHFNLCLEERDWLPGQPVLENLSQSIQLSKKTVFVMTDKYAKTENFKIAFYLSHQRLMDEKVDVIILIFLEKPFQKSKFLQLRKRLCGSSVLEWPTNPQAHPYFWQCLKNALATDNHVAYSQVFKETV
In words: HEK-TLR7 NF-κB-luciferase reporter, R848 stimulation. The format is cell-based. Particulars: for TLR7-100 nM: averaged NF-κB-Luciferase relative to R848: 100 nM ASO, percentage of R848 without ASO (Alharbi et al., 2020); for TLR7 100 nM (averaged NF-κB-Luciferase level relative to R848 condition): ASO 100 nM; for TLR7 100 nM (averaged NF-κB-Luciferase level relative to R848 condition) / TLR7 500 nM (averaged NF-κB-Luciferase level relative to R848 condition): relative to R848 only, given as fraction; for TLR7 500 nM (averaged NF-κB-Luciferase level relative to R848 condition): ASO 500 nM. Background: Reporter assays use an easily measured gene product as a stand-in for the process of interest.

In the oligonucleotide strings, read from the 5' end, every base follows the letter of its sugar. An asterisk marks phosphorothioate; unmarked linkages are phosphodiester. Other units and linkages are bracketed, terminal groups are in braces. A string of capitals states the bases alone. d = 2'-deoxy (DNA); m = 2'-O-methyl

“mG*mU*mG*mU*mC*C*T*T*C*A*T*G*C*T*T*mU*mG*mG*mA*mU (GUGUCCTTCATGCTTUGGAU; antisense; sugars from the 5' end m5 d10 m5, all phosphorothioate, methylation of C not given here) [[CDKN2B-AS1]1415]”: the “TLR7-100 nM: averaged NF-κB-Luciferase relative to R848” value (HEK-TLR7) was found to be 18.05%.

Regarding “GGCACTTTGCCTCCTT (antisense; LNA-modified, pattern not given here) [EGFR-2859 LNA V1]”, the “TLR7 100 nM (averaged NF-κB-Luciferase level relative to R848 condition)” value was found to be 0.774 and the “TLR7 500 nM (averaged NF-κB-Luciferase level relative to R848 condition)” value is listed as 0.668.

For “CGCTTTTCTGTCTGGT (antisense; LNA-modified, pattern not given here) [CTNN2B-311 LNA KL]”, the “TLR7 100 nM (averaged NF-κB-Luciferase level relative to R848 condition)” value is 0.393 and the “TLR7 500 nM (averaged NF-κB-Luciferase level relative to R848 condition)” value stood at 0.142.

Regarding “mG*mC*mA*mG*mU*C*T*C*C*A*T*G*T*C*C*mC*mA*mG*mG*mC (GCAGUCTCCATGTCCCAGGC; antisense; sugars from the 5' end m5 d10 m5, all phosphorothioate, methylation of C not given here) [[CDKN2B-AS1]2234]”, the “TLR7-100 nM: averaged NF-κB-Luciferase relative to R848” value (HEK-TLR7) came to 20.30%.

Turning to “CATCCACCACGTCGTC (antisense; LNA-modified, pattern not given here) [EGFR-3266 LNA V1]”, the “TLR7 100 nM (averaged NF-κB-Luciferase level relative to R848 condition)” value turned out to be 0.741 and the “TLR7 500 nM (averaged NF-κB-Luciferase level relative to R848 condition)” value was determined as 0.353.

As to “mC*mA*mG*mU*mG*T*T*T*T*T*A*A*T*T*T*mU*mG*mU*mA*mG (mC*mA*mG*mU*mG*dT*dT*dT*dT*dT*dA*dA*dT*dT*dT*mU*mG*mU*mA*mG; antisense) [[CDKN2B-AS1]613]”, where the note is “HEK-TLR7”, the “TLR7-100 nM: averaged NF-κB-Luciferase relative to R848” value came to 62.68%.

As for “GGCTCGGCTTGCCTAC (antisense; LNA-modified, pattern not given here) [CAMSAP1-5594 LNA V1]”, the “TLR7 100 nM (averaged NF-κB-Luciferase level relative to R848 condition)” value is given as 0.569 and the “TLR7 500 nM (averaged NF-κB-Luciferase level relative to R848 condition)” value stood at 0.186.

For the substance “AGATTTCAGAGCAGCT (antisense; LNA-modified, pattern not given here) [EGFR-4885 LNA KL]”, the “TLR7 100 nM (averaged NF-κB-Luciferase level relative to R848 condition)” value was determined as 0.438 and the “TLR7 500 nM (averaged NF-κB-Luciferase level relative to R848 condition)” value worked out at 0.021.

Turning to “TGACAAAGATTCACTG (antisense; LNA-modified, pattern not given here) [HPRT LNA-1353 KL]”, the “TLR7 100 nM (averaged NF-κB-Luciferase level relative to R848 condition)” value was determined as 1.040 and the “TLR7 500 nM (averaged NF-κB-Luciferase level relative to R848 condition)” value is given as 0.430.

In the case of “ATGTGATGGCCTCCCA (antisense; LNA-modified, pattern not given here) [HPRT LNA-335 V1]”, the “TLR7 100 nM (averaged NF-κB-Luciferase level relative to R848 condition)” value is 0.499 and the “TLR7 500 nM (averaged NF-κB-Luciferase level relative to R848 condition)” value is reported as 0.128.

In the case of “AATCCAACAAAGTCTG (antisense; LNA-modified, pattern not given here) [HPRT LNA-692 KL]”, the “TLR7 100 nM (averaged NF-κB-Luciferase level relative to R848 condition)” value came out at 0.727 and the “TLR7 500 nM (averaged NF-κB-Luciferase level relative to R848 condition)” value came to 0.433.

Turning to “TCGTGGGGTCCTTTTC (antisense; LNA-modified, pattern not given here) [HPRT LNA-660 V1]”, the “TLR7 100 nM (averaged NF-κB-Luciferase level relative to R848 condition)” value is 0.540 and the “TLR7 500 nM (averaged NF-κB-Luciferase level relative to R848 condition)” value came out at 0.318.

In the case of “CTTGAAGCATCGTATC (antisense; LNA-modified, pattern not given here) [CTNN2B-3648 LNA KL]”, the “TLR7 100 nM (averaged NF-κB-Luciferase level relative to R848 condition)” value came to 0.363 and the “TLR7 500 nM (averaged NF-κB-Luciferase level relative to R848 condition)” value turned out to be 0.044.

Turning to “GAGGTCTTGGCTTCGT (antisense; LNA-modified, pattern not given here) [MB21D1-525 LNA V1]”, the “TLR7 100 nM (averaged NF-κB-Luciferase level relative to R848 condition)” value is 0.793 and the “TLR7 500 nM (averaged NF-κB-Luciferase level relative to R848 condition)” value is recorded as 0.067.

Consider “CCTCCCATCTCCTTCA (antisense; LNA-modified, pattern not given here) [HPRT LNA-326 V1]”, for which the “TLR7 100 nM (averaged NF-κB-Luciferase level relative to R848 condition)” value came to 0.758 and the “TLR7 500 nM (averaged NF-κB-Luciferase level relative to R848 condition)” value is given as 0.843.

For the substance “mA*mG*mU*mC*mU*C*C*A*T*G*T*C*C*C*A*mG*mG*mC*mC*mU (mA*mG*mU*mC*mU*dC*dC*dA*dT*dG*dT*dC*dC*dC*dA*mG*mG*mC*mC*mU; antisense) [[CDKN2B-AS1]2232]”, the “TLR7-100 nM: averaged NF-κB-Luciferase relative to R848” value (HEK-TLR7) worked out at 35.77%.

As to “TGCTCCTCGGTCTCCC (antisense; LNA-modified, pattern not given here) [CAMSAP1-1850 LNA V1]”, the “TLR7 100 nM (averaged NF-κB-Luciferase level relative to R848 condition)” value is recorded as 0.751 and the “TLR7 500 nM (averaged NF-κB-Luciferase level relative to R848 condition)” value was 0.595.

Consider “TCTTGGCTTCGTGGAG (antisense; LNA-modified, pattern not given here) [MB21D1-521 LNA V1]”, for which the “TLR7 100 nM (averaged NF-κB-Luciferase level relative to R848 condition)” value came to 1.033 and the “TLR7 500 nM (averaged NF-κB-Luciferase level relative to R848 condition)” value is given as 0.288.

For the substance “CTGCAGCTTCCTTGTC (antisense; LNA-modified, pattern not given here) [CTNN2B-2136 LNA V1]”, the “TLR7 100 nM (averaged NF-κB-Luciferase level relative to R848 condition)” value amounted to 0.467 and the “TLR7 500 nM (averaged NF-κB-Luciferase level relative to R848 condition)” value is reported as 0.053.

“AGCTTCGAGGCCCCAG (antisense; LNA-modified, pattern not given here) [MB21D1-616 LNA V1]”: the “TLR7 100 nM (averaged NF-κB-Luciferase level relative to R848 condition)” value was determined as 0.554 and the “TLR7 500 nM (averaged NF-κB-Luciferase level relative to R848 condition)” value came to 0.111.

With “GTCTCTGGAGCTTCCT (antisense; LNA-modified, pattern not given here) [CAMSAP1-2456 LNA V1]”, the “TLR7 100 nM (averaged NF-κB-Luciferase level relative to R848 condition)” value was determined as 0.477 and the “TLR7 500 nM (averaged NF-κB-Luciferase level relative to R848 condition)” value came out at 0.084.

Turning to “AAAGGACTGAGGAAAG (antisense; LNA-modified, pattern not given here) [CAMSAP1-6273 LNA KL]”, the “TLR7 100 nM (averaged NF-κB-Luciferase level relative to R848 condition)” value stood at 0.513 and the “TLR7 500 nM (averaged NF-κB-Luciferase level relative to R848 condition)” value is 0.267.

As to “TCCACAATCAAGACAT (antisense; LNA-modified, pattern not given here) [HPRT LNA-551 KL]”, the “TLR7 100 nM (averaged NF-κB-Luciferase level relative to R848 condition)” value was found to be 0.863 and the “TLR7 500 nM (averaged NF-κB-Luciferase level relative to R848 condition)” value is 0.533.

For “GCACACTTCGTACCCA (antisense; LNA-modified, pattern not given here) [CAMSAP1-4915 LNA V1]”, the “TLR7 100 nM (averaged NF-κB-Luciferase level relative to R848 condition)” value was determined as 0.657 and the “TLR7 500 nM (averaged NF-κB-Luciferase level relative to R848 condition)” value is 0.221.

Take “mC*mA*mG*mU*mC*T*C*C*A*T*G*T*C*C*C*mA*mG*mG*mC*mC (mC*mA*mG*mU*mC*dT*dC*dC*dA*dT*dG*dT*dC*dC*dC*mA*mG*mG*mC*mC; antisense) [[CDKN2B-AS1]2233]”: where the note is “HEK-TLR7”, the “TLR7-100 nM: averaged NF-κB-Luciferase relative to R848” value turned out to be 47.75%.

Turning to “GTCCTTGCACGTGGCT (antisense; LNA-modified, pattern not given here) [EGFR-1015 LNA V1]”, the “TLR7 100 nM (averaged NF-κB-Luciferase level relative to R848 condition)” value stood at 0.471 and the “TLR7 500 nM (averaged NF-κB-Luciferase level relative to R848 condition)” value came to 0.251.

In the case of “TCCGCCCAAAGGGAAC (antisense; LNA-modified, pattern not given here) [HPRT LNA-1027 KL]”, the “TLR7 100 nM (averaged NF-κB-Luciferase level relative to R848 condition)” value came to 0.860 and the “TLR7 500 nM (averaged NF-κB-Luciferase level relative to R848 condition)” value came to 0.543.

As for “mG*mU*mG*mU*mU*T*T*T*A*A*T*T*T*T*G*mU*mA*mG*mA*mG (mG*mU*mG*mU*mU*dT*dT*dT*dA*dA*dT*dT*dT*dT*dG*mU*mA*mG*mA*mG) [[CDKN2B-AS1]611]”, the “TLR7-100 nM: averaged NF-κB-Luciferase relative to R848” value (HEK-TLR7) was found to be 23.63%.

“mA*mU*mU*mU*mC*C*A*C*A*T*G*C*C*C*A*mG*mU*mG*mU*mU (AUUUCCACATGCCCAGUGUU; antisense; sugars from the 5' end m5 d10 m5, all phosphorothioate, methylation of C not given here) [[CDKN2B-AS1]626]”: the “TLR7-100 nM: averaged NF-κB-Luciferase relative to R848” value (HEK-TLR7) was 32.05%.

For “mC*mU*mU*mG*mU*G*A*A*A*A*G*A*T*T*A*mU*mC*mU*mU*mC (mC*mU*mU*mG*mU*dG*dA*dA*dA*dA*dG*dA*dT*dT*dA*mU*mC*mU*mU*mC) [[CDKN2B-AS1]2139]”, under “HEK-TLR7”, the “TLR7-100 nM: averaged NF-κB-Luciferase relative to R848” value was 85.33%. Moreover, where the note is “HEK-TLR7, 100-500 nM oligo 20-50 min before R848 1 μg/ml”, the “inhibition of R848 sensing by TLR7, short pre-treatment (in words)” value is “did not inhibit TLR7”.
